From ChEMBL document CHEMBL1201862, “PubChem BioAssay data set” (2004)
Calls of active or inactive are those of the source.

Columns and labels:
[1] = target: T1, Short transient receptor potential channel 4 (Mus musculus, UniProt Q9QUQ5); experiment: mouse TRPC4 channel activators, dose response, cell-based, HEK293 TRPC4/mu-opioid, Fluo-4 calcium (AID 434937); type: functional
T1 sequence (Q9QUQ5 whole entry): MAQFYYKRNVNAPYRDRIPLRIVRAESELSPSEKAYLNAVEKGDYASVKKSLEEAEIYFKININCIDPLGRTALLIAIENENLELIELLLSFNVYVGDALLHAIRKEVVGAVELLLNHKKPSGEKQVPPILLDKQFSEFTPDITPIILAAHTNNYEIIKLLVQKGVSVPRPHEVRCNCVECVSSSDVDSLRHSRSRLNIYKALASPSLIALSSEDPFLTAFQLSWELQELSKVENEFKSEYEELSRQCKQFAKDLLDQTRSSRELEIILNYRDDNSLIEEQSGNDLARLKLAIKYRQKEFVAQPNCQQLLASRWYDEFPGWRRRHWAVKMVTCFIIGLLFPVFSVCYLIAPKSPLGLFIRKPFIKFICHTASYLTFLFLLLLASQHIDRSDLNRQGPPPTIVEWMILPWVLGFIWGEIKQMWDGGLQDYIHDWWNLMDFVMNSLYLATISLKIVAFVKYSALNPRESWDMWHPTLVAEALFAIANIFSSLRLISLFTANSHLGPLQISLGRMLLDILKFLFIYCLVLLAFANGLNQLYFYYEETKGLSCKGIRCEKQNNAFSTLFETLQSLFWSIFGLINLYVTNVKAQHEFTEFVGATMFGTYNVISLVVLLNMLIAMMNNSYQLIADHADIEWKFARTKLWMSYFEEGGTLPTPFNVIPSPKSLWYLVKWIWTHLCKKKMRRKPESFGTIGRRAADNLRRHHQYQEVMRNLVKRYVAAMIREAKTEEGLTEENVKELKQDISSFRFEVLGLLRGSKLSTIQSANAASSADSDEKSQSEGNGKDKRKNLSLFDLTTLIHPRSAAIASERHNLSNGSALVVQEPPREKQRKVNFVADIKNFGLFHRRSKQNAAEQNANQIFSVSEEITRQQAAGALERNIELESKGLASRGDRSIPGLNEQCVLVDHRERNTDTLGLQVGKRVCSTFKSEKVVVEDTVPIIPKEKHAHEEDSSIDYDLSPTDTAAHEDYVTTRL

[2] = target: T2, Heat shock factor protein 1 (Mus musculus, UniProt P38532); experiment: HSF1 potentiators in luciferase reporter cells, confirmation, cell-based, NIH3T3, luminescence, dose retest (AID 435004); type: functional;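 note: stress induced by proteasome inhibitor MG132 added 30 min after compound; luciferase reporter driven by HSF1 response element in NIH3T3 cells; actives raise luminescence as potentiators of the MG132 stress response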
T2 sequence (P38532 whole entry): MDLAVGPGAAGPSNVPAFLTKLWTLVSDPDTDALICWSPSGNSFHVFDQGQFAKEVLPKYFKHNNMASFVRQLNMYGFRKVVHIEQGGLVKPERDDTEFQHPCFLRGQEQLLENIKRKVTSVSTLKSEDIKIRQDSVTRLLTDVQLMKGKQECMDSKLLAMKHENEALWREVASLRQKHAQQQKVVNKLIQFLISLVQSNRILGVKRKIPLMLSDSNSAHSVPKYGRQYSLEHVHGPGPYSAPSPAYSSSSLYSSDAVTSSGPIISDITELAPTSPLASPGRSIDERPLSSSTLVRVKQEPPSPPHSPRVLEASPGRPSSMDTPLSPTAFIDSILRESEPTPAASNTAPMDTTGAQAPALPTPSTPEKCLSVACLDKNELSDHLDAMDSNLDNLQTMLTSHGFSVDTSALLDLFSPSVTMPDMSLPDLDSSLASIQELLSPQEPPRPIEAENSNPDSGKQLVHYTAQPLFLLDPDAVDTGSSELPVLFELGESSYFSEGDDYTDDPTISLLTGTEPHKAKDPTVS

H4 = experiment: Luminescence Cell-Based Dose Response HTS to Identify Activators of 5'UTR Stem-Loop Driven Prion Protein mRNA Translation in H4 Neuroglioblastoma Cells. [Related pubchem assays: 1829 (Project Summary), 1814 (Primary HTS)]; type: functional; details: Homo sapiens
[3] = Luminescence Cell-Based Dose Response HTS to Identify Activators of Luciferase Translation or Activity in H4 […] Cells. [Related pubchem assays: 1829 (Project Summary), 1814 (Primary HTS)]; type: functional
[4] = Luminescence Cell-Based Dose Confirmation HTS to Identify Activators of 5'UTR Stem-Loop Driven Alpha-Synuclein mRNA Translation in H4 Neuroglioblastoma Cells. [Related pubchem assays: 1829 (Project Summary), 1814 (Primary HTS)]; type: functional
[5] = target: T3, Calpain-2 catalytic subunit (Sus scrofa, UniProt P43367); experiment: pig calpain II inhibitor potency, dose response, biochemical, fluorogenic peptide substrate (AID 1420); type: functional
T3 sequence (P43367 whole entry): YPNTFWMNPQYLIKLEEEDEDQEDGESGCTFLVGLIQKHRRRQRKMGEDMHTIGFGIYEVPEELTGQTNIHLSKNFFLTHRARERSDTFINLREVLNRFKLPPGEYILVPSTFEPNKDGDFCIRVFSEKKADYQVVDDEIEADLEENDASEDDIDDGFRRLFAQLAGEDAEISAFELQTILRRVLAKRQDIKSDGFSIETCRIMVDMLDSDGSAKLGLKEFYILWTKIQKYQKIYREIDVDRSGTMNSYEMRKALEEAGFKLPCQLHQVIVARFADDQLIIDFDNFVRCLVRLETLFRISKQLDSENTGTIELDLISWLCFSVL

[6] = inhibitors of HIV Env-driven cell fusion, dose response, cherry-pick (AID 652057); type: functional, cell-based
[7] = Shn3 3'UTR reporter inhibitors, dose response, cell-based, Clone20 osteoblasts, firefly luciferase, cherry-picked (AID 624132); type: functional;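 note: firefly luciferase luminescence from reporter carrying the Shn3 3'UTR in osteoblasts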
[8] = control 3'UTR Renilla luciferase suppression, dose response, counter-screen for Shn3 inhibitor project, cell-based, Clone20-Shn3RL, cherry-picked (AID 624133); type: functional
cells = type: functional
[9] = Luminescence Cell-Based Dose Retest to Confirm Inhibitors of Cancer Stem Cells. [Related pubchem assays (depositor defined):AID2717, AID2721]; type: functional; details: Homo sapiens
[10] = HEp-2 cell cytotoxicity, dose response, cytotoxicity control for RSV inhibitor project, HTS (AID 2410); type: functional; details: human respiratory syncytial virus
[11] = inhibitors of intracellular T. cruzi replication, confirmation, NIH3T3 host cells, beta-gal luminescence (AID 2044); type: functional, cell-based;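 note: intracellular parasites grown in NIH/3T3 mouse fibroblasts as host cells; luminescent beta-galactosidase reporter signal from transgenic T. cruzi replicating inside host cells; inhibitors lower the luminescence signal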
[12] = cytotoxicity toward NIH3T3 fibroblasts, dose response, counter-screen, cell-based, ATP luminescence, mouse fibroblasts (AID 2010); type: functional;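 note: cells exposed to compound for about 90 hours before reading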
[13] = HepG2 cell cytotoxicity, dose response, cytotoxicity control for Shn3 inhibitor project, CellTiter-Glo, cherry-picked (AID 624134); type: functional, cell-based
[14] = target: T2, Heat shock factor protein 1; experiment: inhibition of MG132-induced HSE-luciferase signal, confirmation, cell-based, NIH3T3, luminescence, dose retest (AID 2382); type: functional;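 note: NIH3T3 fibroblasts with HSF1-driven luciferase reporter stressed by proteasome inhibitor MG132; luminescence from HSF1-driven luciferase expression after 8 hours of MG132 stress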

Cn1c(N2CCN(C(=O)Nc3ccc(C(F)(F)F)cc3)CC2)nc2ccccc21
EC50 [1]: 3.35 µM (active)

Cn1c(CN2CCN(C(=O)c3ccc(F)cc3)CC2)nc2cc([N+](=O)[O-])ccc21
EC50 [2]: > 260 µM (inactive)

COc1ccc(OC(=O)c2cnn(-c3ccccc3)c2C)cc1
EC50 (H4): 1.93 µM (active) | EC50 [3]: 1.26 µM (active) | EC50 [4]: 9.33 µM (active)

COc1ccc(CCNc2oc(COc3ccc(F)cc3)nc2C#N)cc1
IC50 [5]: 9.9 µM (not active)

COc1ccc(S(=O)(=O)N(C)C[C@H]2Oc3cc(C4=CCCC4)ccc3S(=O)(=O)N([C@@H](C)CO)C[C@H]2C)cc1
AC50 [6]: 16.4 µM (active)

CC(=O)N1N=C(c2ccccc2)CC1c1cn(C)c2ccccc12 (centres undefined)
EC50 (H4): 53 µM (active) | EC50 [3]: 10.4 µM (active) | EC50 [4]: 9.19 µM (active)

O=C1NC(=O)[C@]2(Cc3ccccc3N3CCN(c4ccccc4)CC32)C(=O)N1Cc1ccccc1 (some centres undefined)
EC50 [2]: > 260 µM (inactive)

CN(CC(=O)N1CCCCCC1)S(=O)(=O)c1ccccc1
EC50 (H4): 18.1 µM (active) | EC50 [3]: 20.8 µM (active) | EC50 [4]: 15.4 µM (active)

Cn1c(Sc2ccc(C(F)(F)F)cc2[N+](=O)[O-])nnc1-c1ccccc1
EC50 [2]: > 260 µM (inactive)

O=C1CC2(CCN(C(=O)c3ccccc3F)CC2)Oc2ccccc21
AC50 [7]: 65.8 µM (active) | AC50 [8]: 30.8 µM (active)

O=C(CCSc1ccccc1)NC(=O)COC(=O)C1CCCCC1
IC50 [5]: 6.64 µM (not active)

Cc1ccc(C(=O)/C=C/c2ccc(-c3ccc(C)cc3)o2)cc1
AC50 [7]: 2.79 µM (active) | AC50 [8]: 14.3 µM (active)

CCOc1ccccc1N(CC(=O)OC)S(=O)(=O)c1ccccc1
IC50 [5]: 35 µM (not active)

COc1c2c(cc3c1C(CC(O)Cc1ccccc1)N(C)CC3)OCO2 (centres undefined)
EC50 [1]: 2.99 µM (active)

O=C(CCCCn1c(=O)[nH]c2ccccc2c1=O)NC1CCN(Cc2ccccc2)CC1
EC50 [1]: 0.376 µM (active)

O=C(c1c(F)cccc1F)N1CCN(c2ncc(Br)cn2)CC1
EC50 [1]: 0.596 µM (active)

CC12CCC(=O)N1C(C(=O)Nc1cccc3ccccc13)CS2 (centres undefined)
EC50 [2]: > 260 µM (inactive)

Cc1cc(C)n(CC(O)COc2ccc(Cl)cc2Cl)n1 (centres undefined)
EC50 [2]: 116 µM (active)

O=C(CCN1CCC(c2cccs2)=N1)c1cccs1
EC50 (H4): 15.5 µM (active) | EC50 [3]: 17.8 µM (active) | EC50 [4]: 15.7 µM (active) | IC50 (cells): 35.8 µM (active)

COc1ccc(NC(=O)c2ccccc2SC)cc1
IC50 [5]: 8.1 µM (not active)

CCCCNc1nc(Nc2ccc(C)c(Cl)c2)c2cnn(C)c2n1
AC50 [9]: 9.2 µM (active) | EC50 [2]: > 260 µM (inactive) | CC50 [10]: 6.78 µM (active)

O=C(COc1ccc(C(=O)c2ccccc2)cc1)NC1CCCCCC1
IC50 [5]: 22.9 µM (not active)

COc1ccc(CCn2c(=N)c(C(=O)NCC3CCCO3)cc3c(=O)n4cccc(C)c4nc32)cc1 (centres undefined)
EC50 [11]: 1.2 µM (active) | EC50 (H4): > 120 µM (not active) | EC50 [3]: 34.5 µM (active) | EC50 [4]: > 120 µM (not active) | EC50 [12]: > 30 µM (not active)

CCOC(=O)c1cn(CC(=O)Nc2cccc(Cl)c2C)nn1
AC50 [13]: > 70 µM (inactive) | AC50 [7]: 4.65 µM (active)

Cc1cccc(NC(S)=NCC(c2ccccc2)N(C)C)c1 (centres undefined)
EC50 [1]: 0.119 µM (active)

COC(=O)c1ccccc1N=Nc1c(O)n[nH]c1N
EC50 [1]: 2.99 µM (active) | CC50 [10]: > 50 µM (active)

Cc1cccc(C)c1N(CC(=O)Nc1cc(Cl)ccc1Oc1ccccc1)S(C)(=O)=O
IC50 [5]: 2.8 µM (not active)

CCN1C(=O)/C(=C/c2nc3ccccc3c(=O)n2-c2ccc(C)cc2)c2ccccc21
EC50 [11]: 1.79 µM (active) | EC50 (H4): 49.8 µM (active) | EC50 [3]: > 120 µM (not active) | EC50 [4]: 11 µM (active) | EC50 [12]: > 60 µM (not active)

CCn1c(/C=C/Nc2ccccc2)[n+](CC)c2ccc(C(=O)OCC(F)(F)F)cc21
IC50 [5]: 6.92 µM (not active)

CN1CCN(c2ccc([N+](=O)[O-])c3cccnc23)CC1
EC50 [14]: > 195 µM (not active) | EC50 [1]: 0.004 µM (active)

Cc1cc(C)n(C(=N)NC(=O)c2ccc([N+](=O)[O-])cc2)n1
EC50 (H4): 110 µM (active) | EC50 [3]: 26.7 µM (active) | EC50 [4]: 18.9 µM (active)

CCc1ccc(-c2cc(C(=O)NCc3ccccn3)c3ccccc3n2)cc1
EC50 (H4): 11.4 µM (active) | EC50 [3]: 21.4 µM (active) | EC50 [4]: 6.99 µM (active)

Cc1ccc(CNC(=O)c2cn(C3CCCCC3)c(=O)c3c2c2ccccc2n3C)o1
EC50 [2]: 51.7 µM (active) | CC50 [10]: 23.3 µM (active)

CCC(=O)Nc1ccc2nn(-c3ccc(F)cc3)nc2c1
EC50 [2]: > 260 µM (inactive) | EC50 [11]: 4.4 µM (active) | EC50 [12]: > 60 µM (not active)

CCOC(=O)C1CCCN(S(=O)(=O)c2cccs2)C1 (centres undefined)
IC50 [5]: < 0.4 µM (not active)

S=C(NCCc1ccccc1)N1CCc2ccccc2C1
EC50 (H4): 26.3 µM (active) | EC50 [3]: 9.54 µM (active) | EC50 [4]: 12.2 µM (active)
